Source: ChEMBL document CHEMBL1148644, “Human PEPT1 pharmacophore distinguishes between dipeptide transport and binding” (J Med Chem, 2006)
Where a SMILES comes first, the peptide text is derived from it.

Key:
[1] = target: T1, Solute carrier family 15 member 1 (Homo sapiens, UniProt P46059); experiment: Activation of human PEPT1 expressed in MDCK cells; assay type: functional, cell-based
T1 sequence (P46059 whole entry): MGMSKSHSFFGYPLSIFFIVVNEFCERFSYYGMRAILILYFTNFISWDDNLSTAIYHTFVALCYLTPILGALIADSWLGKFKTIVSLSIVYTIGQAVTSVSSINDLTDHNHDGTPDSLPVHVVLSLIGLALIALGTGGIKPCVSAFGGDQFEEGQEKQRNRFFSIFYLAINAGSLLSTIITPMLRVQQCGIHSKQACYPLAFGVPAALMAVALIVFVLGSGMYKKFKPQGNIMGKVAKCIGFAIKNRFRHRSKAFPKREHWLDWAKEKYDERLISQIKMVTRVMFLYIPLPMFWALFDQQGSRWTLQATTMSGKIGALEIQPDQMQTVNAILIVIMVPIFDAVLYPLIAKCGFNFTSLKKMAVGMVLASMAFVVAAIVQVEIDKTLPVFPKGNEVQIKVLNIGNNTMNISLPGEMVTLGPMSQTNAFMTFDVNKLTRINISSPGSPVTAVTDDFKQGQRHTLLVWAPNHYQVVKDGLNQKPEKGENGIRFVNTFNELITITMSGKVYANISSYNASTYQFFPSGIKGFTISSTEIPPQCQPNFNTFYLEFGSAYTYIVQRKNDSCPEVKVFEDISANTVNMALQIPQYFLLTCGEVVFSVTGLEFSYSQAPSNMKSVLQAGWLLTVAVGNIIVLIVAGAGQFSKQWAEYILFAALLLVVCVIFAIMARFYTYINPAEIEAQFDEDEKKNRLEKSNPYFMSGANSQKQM

[2] = target: T1, Solute carrier family 15 member 1; experiment: Binding affinity to human PEPT1 assessed as inhibition of [14C]Gly-Sar uptake in MDCK cells; assay type: functional, cell-based; details: read-out: IC50

| SMILES | EC50 [1] [µM] | IC50 [2] [µM] |
| --- | --- | --- |
| CC(C)[C@H](NC(=O)[C@@H](N)CCCCN)C(=O)O (H-Lys-Val-OH) | 140 | 250 |
| CC(C)[C@H](N)C(=O)N[C@H](C(=O)N[C@H](C(=O)O)C(C)C)C(C)C (H-Val-Val-Val-OH) | 210 | 230 |
| C[C@H](NC(=O)[C@@H](N)Cc1ccccc1)C(N)=O | 850 | 2990 |
| N[C@@H](Cc1ccc(O)cc1)C(=O)N[C@@H](Cc1ccc(O)cc1)C(=O)O (H-Tyr-Tyr-OH) | 60 | 60 |
| NCC(=O)N[C@@H](Cc1ccc(O)cc1)C(=O)O (H-Gly-Tyr-OH) | 140 | 120 |
| NCCCC[C@H](NC(=O)CN)C(=O)O (H-Gly-Lys-OH) | 750 | 1250 |
| O=C(O)C[C@H](NC(=O)[C@@H]1CCCN1)C(=O)O (H-Pro-Asp-OH) | > 5000 | 9160 |
| NCCCC[C@H](N)C(=O)N[C@@H](CCC(=O)O)C(=O)O (H-Lys-Glu-OH) | 530 | 820 |

Further molecules by falling EC50 [1], results first:

| EC50 [1] [µM] | IC50 [2] [µM] | SMILES |
| --- | --- | --- |
| 990 | 630 | N[C@@H](CC(=O)O)C(=O)N[C@@H](CC(=O)O)C(=O)O (H-Asp-Asp-OH) |
| 700 | 800 | O=C(O)[C@@H]1CCCN1C(=O)[C@@H]1CCCN1 (H-Pro-Pro-OH) |
| 580 | 1070 | NCC(=O)NCC(=O)NCC(=O)O |
| 550 | 380 | NCC(=O)N[C@@H](CC(=O)O)C(=O)O (H-Gly-Asp-OH) |
| 280 | 340 | N[C@@H](Cc1c[nH]cn1)C(=O)NCC(=O)O (H-His-Gly-OH) |
| 140 | 130 | N[C@@H](CO)C(=O)N[C@@H](CO)C(=O)O (H-Ser-Ser-OH) |
| 130 | 330 | NCC(=O)N1CCC[C@H]1C(=O)O [GLYCYL PROLINE] (H-Gly-Pro-OH) |
